The supplement of paper PMC8882468

Legend:
Assay in all cases: CTG-3D luminescence at 96 h relative to day-0 seeding control (ratio to day 0); higher = more growth / less cytotoxicity; PDxO 3D drug screen, 96 h, CTG-3D normalised to day-0 seeding control.
[1] = system: HCI-012 (organoid from a breast cancer xenograft)
[2] = system: HCI-011.E2 (organoid from an ER-positive breast cancer xenograft)
[3] = system: HCI-010 (organoid from a breast cancer xenograft)
[4] = system: HCI-001 (organoid from a triple-negative breast cancer xenograft)
[5] = system: HCI-027 (organoid from a triple-negative breast cancer xenograft)
[6] = system: MDA-MB-231

O=C(O)C1(C(=O)O)CCC1.[NH2-].[NH2-].[Pt+2] [carboplatin]
CTG-3D luminescence at 96 h
Details	12.5 pM	0.00025 µM	0.005 µM	0.1 µM	1 µM	10 µM	100 µM	625 fM
[1], days in culture: 143	2.05	1.91	1.99	2.46	2.43	1.87	0.161	1.81
[1], days in culture: 162	2.3	1.93	2.03	2.94	2.7	2.14	0.261	2.61
[1], days in culture: 201	2.62	1.81	1.46	1.53	2.08	1.48	0.595	1.38
[2], days in culture: 74	2.31	2.54	2.04	1.86	2.2	2.77	2.69	1.99
[3], days in culture: 52	1.92	2.23	2.25	2.47	2.55	0.598	0.0393	1.82
[3], days in culture: 65	1.63	1.56	1.74	1.77	1.63	0.511	0.0408	1.74
[3], days in culture: 103	3.69	3.41	3.55	3.27	3.23	0.639	0.13	3.07
[4], days in culture: 240	1.59	1.15	0.945	1.27	1.63	1.29	0.471	1.36
[4], days in culture: 260	1.71	0.978	2.01	1.09	1.41	1.48	0.569	0.928
[4], days in culture: 269	1.59	1.61	1.58	1.8	1.83	2.14	0.918	1.75
[4], days in culture: 327	1.5	1.43	2.04	1.74	1.53	1.15	0.592	1.83
[4], days in culture: 346	1.42	1.53	1.03	1.02	1.47	1.47	1.01	1.35
[4], days in culture: 364	1.45	1.09	1.54	0.839	1.01	1.56	0.829	1.51
[5], days in culture: 176	1.57	1.38	2.11	1.68	2.42	1.35	0.0917	1.72
[5], days in culture: 194	1.43	1.55	1.4	1.9	2.15	1.91	0.181	1.44
[5], days in culture: 201	2.1	1.98	2.09	2.08	2.19	1.53	0.145	1.71

CTG-3D luminescence at 96 h
Details	12.5 pM	0.00025 µM	0.005 µM	0.1 µM	1 µM	10 µM	100 µM	625 fM
[2]	1.65	1.72	1.54	2.26	1.71	2.08	1.71	1.69
[6]	4.49	4.27	4.51	4.46	4.4	4.16	3.05	4.47

COc1cc2c(Oc3ccc4[nH]c(C)cc4c3F)ncnc2cc1OCCCN1CCCC1 [cediranib]
CTG-3D luminescence at 96 h
Details	12.5 pM	0.00025 µM	0.005 µM	0.1 µM	1 µM	10 µM	100 µM	625 fM
[1], days in culture: 143	2.15	1.81	1.84	2.55	2.33	0.0236	-0.00161	2
[1], days in culture: 162	2.22	1.99	1.54	2.43	2.26	0.0254	-0.00236	3.02
[1], days in culture: 201	2.36	2.05	1.5	1.45	2.29	0.0167	-0.00095	1.66
[2], days in culture: 74	2.32	2.91	2.13	2.41	2.47	2.28	0.0101	2.38
[3], days in culture: 52	1.94	2.48	2.23	2.46	2.24	0.221	-0.0298	2.13
[3], days in culture: 65	1.55	1.65	1.76	1.77	1.42	0.593	-0.00161	1.63
[3], days in culture: 103	3.58	3.43	3.17	3.43	2.66	0.461	-0.00732	3.19
[4], days in culture: 240	1.68	1.12	1.16	0.837	1.93	0.491	0.00478	1.37
[4], days in culture: 260	1.84	0.917	1.79	1.4	1.81	0.0612	0.00103	1.3
[4], days in culture: 269	1.74	2.02	1.64	2.09	2.09	0.00899	-0.0128	1.63
[4], days in culture: 327	1.52	1.34	1.78	1.71	1.48	0.433	0.00365	1.84
[4], days in culture: 346	1.6	1.18	1.25	1.32	1.41	0.639	0.00677	1.33
[4], days in culture: 364	1.33	1.06	1.55	1.18	1.23	0.264	0.00077	1.44
[5], days in culture: 176	1.99	1.2	2.24	1.46	2.56	0.0266	-0.00276	1.66
[5], days in culture: 194	1.76	1.48	1.39	1.94	2.13	0.0281	-0.00212	1.47
[5], days in culture: 201	2.17	1.9	1.78	1.87	2.39	0.0302	-0.000884	1.9

CTG-3D luminescence at 96 h
Details	12.5 pM	0.00025 µM	0.005 µM	0.1 µM	1 µM	10 µM	100 µM	625 fM
[2]	1.53	1.52	1.45	2.05	1.65	1.44	0.0243	1.97
[6]	4.34	4.3	4.48	4.29	4.44	1.46	0.0107	4.45
